Measured values: PMC5916221, “High-throughput identification of G protein-coupled receptor modulators through affinity mass spectrometry screening” (Chemical Science, 2018)
Several values for one entry are separate records, joined by “and”; a condition that tells them apart may be missing. Identical values can stand only once.

How the values were obtained:
[1] = molecular target: T1, glucagon-like peptide-1 receptor (GLP-1R) (Homo sapiens, UniProt P43220, DEL258-263); experiment: affinity MS on receptor-expressing membranes, binding index vs rhodopsin control
T1 construct: gene GLP1R; TMD residues 128–431 with intracellular loop 2 (258–263) replaced by rubredoxin, N-terminal BRIL
T1 sequence (P43220 128-257): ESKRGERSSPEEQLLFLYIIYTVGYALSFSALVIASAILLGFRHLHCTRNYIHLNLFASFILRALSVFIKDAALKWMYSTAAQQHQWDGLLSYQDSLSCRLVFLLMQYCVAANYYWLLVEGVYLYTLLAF
T1 sequence (P43220 264-431): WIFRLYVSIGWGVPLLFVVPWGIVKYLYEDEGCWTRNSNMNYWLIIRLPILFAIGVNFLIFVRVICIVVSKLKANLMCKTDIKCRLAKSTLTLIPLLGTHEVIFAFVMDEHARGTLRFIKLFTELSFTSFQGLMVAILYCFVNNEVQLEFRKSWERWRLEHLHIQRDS

5-HT2CR = molecular target: T2, 5-HT2CR (Homo sapiens, UniProt P28335); experiment: biochemical; parameters: CPM fluorescent dye thermal shift assay on purified receptor, Tm shift versus apo receptor; settings: single replicate of two; for ΔTm (°C): 100 µM, binder
T2 construct: gene HTR2C
T2 sequence (P28335 1-458): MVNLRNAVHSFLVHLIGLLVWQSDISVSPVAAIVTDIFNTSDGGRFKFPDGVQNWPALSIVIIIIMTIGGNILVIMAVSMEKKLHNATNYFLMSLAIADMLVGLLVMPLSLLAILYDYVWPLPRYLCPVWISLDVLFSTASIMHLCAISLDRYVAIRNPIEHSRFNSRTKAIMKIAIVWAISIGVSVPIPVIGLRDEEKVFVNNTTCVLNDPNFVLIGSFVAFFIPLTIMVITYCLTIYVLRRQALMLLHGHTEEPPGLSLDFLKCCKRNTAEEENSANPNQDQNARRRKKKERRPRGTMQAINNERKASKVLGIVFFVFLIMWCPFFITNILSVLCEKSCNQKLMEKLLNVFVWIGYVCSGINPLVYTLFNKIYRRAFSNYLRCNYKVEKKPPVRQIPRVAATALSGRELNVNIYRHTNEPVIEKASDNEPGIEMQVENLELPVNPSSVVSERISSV
Method: The thermal shift assay using a CPM fluorescent dye (Sigma) was performed as described in the literature.[27] […] The protein sample was heated step-wise on a Rotor-Gene Thermo-optical Analyzer (QIAGEN Gmbh) from 25 °C to 95 °C. Upon temperature rise, the proteins unfolded and cysteine residues were exposed to form adducts with CPM, which were detected by fluorescence at 387/463 nm using an EnVision multilabel plate reader (PerkinElmer). From the normalized thermal stability curve, melting temperatures (Tm) were obtained by fitting the curve with a Boltzmann sigmoidal function using GraphPad Prism. Comparison of Tm for the apo receptor and receptor incubated with a compound gave rise to Tm shift (ΔTm) for the compound. Using stringent data processing criteria for compound annotation and hit selection (see ESI ^†), we identified a total of 23 initial hits from screening the 9 cocktails (Fig. 2, full data set in Table S1 ^†). Twelve were well characterized antagonists for 5-HT2CR or a closely-related subfamily member 5-HT2AR with a mean BI of 2.16 to 9.71 (full data set in Table S2 ^†). […] While their IC50 or Ki values from the ChEMBL database were all above 10 nM, 85% had IC50 or Ki > 100 nM towards 5-HT2CR. Therefore, the stringent BI cut-off defined for hit selection ensured identification of highest affinity ligands with a minimal false-positive rate. To verify the 11 initial hits with no documented binding to the 5-HT2 receptor family, a simple mixture was created by pooling and incubating them with the receptor-expressing membranes. Four hits were verified in this secondary affinity MS assay (Fig. 3a). Those that were invalidated could have resulted from compound misidentification or altered binding properties in the original complex mixtures. […] The radioligand competition assay verified potent antagonist binding of 3943 to all three 5-HT2 receptor subtypes in the nanomolar range, with stronger affinity to 5-HT2A/2BR than 5-HT2CR (Fig. 3c, S3b ^†). It was not surprising to identify a new antagonist against three 5-HT2 receptor subfamily members using our approach because of the high sequence homology and very similar ligand binding pockets among them.

Row | affinity MS on receptor-expressing membranes, binding index vs rhodopsin control [1] | ΔTm at 100 µM (5-HT2CR) [°C] | ΔTm (°C) (5-HT2CR) | Compound
1 | 3.31 binding index (ratio) |  |  | CS(=O)(=O)c1cccc(NC(=O)N(Cc2ccc(C(=O)Nc3nnn[nH]3)cc2)c2ccc(C3CCCCC3)cc2)c1 [NNC0640]
2 | 16.66 binding index (ratio) |  |  | CC1(C)CC([C@@H](Nc2ccc(-n3cnc(C(F)(F)F)c3)nc2)c2ccc(C(=O)NCCC(=O)O)cc2)C1 [PF06372222]
3 |  | 0.2 |  | CC(C)c1nc(CN(C)C(=O)N[C@H](C(=O)N[C@@H](Cc2ccccc2)C[C@H](O)[C@H](Cc2ccccc2)NC(=O)OCc2cncs2)C(C)C)cs1 [compound 462, Ritonavir]
4 |  | 2 |  | C[C@@H]1CN(c2c(F)c(F)c3c(=O)c(C(=O)O)cn(C4CC4)c3c2F)C[C@H](C)N1 [compound 1382, Orbifloxacin]
5 |  |  | -3.0 °C and -0.2 °C | O=C(NC1CCNCC1)c1n[nH]cc1NC(=O)c1c(Cl)cccc1Cl [compound 3931, AT 7519]
6 |  | 6.2 | 6.9 °C | C1=Cc2ccccc2C(=C2CCN(CCCCc3nn[nH]n3)CC2)c2ccccc21 [compound 3943, AT-56]
